Test results published in patent US20040241152A1, “Methods for inducing an immune response with an elevated th1/th2 ratio, by intracellular induction of nfkappab” (priority 2001, published 2004).

B1: CD54: costimulatory molecule incorporated into DNA vaccines (protein, UniProt P05362 28-532, looked up)
Intercellular adhesion …: QTSVSPSKVILPRGGSVLVTCSTSCDQPKLLGIETPLPKKELLLPGNNRKVYELSNVQEDSQPMCYSNCPDGQSTAKTFLTVYWTPERVELAPLPSWQPVGKNLTLRCQVEGGAPRANLTVVLLRGEKELKREPAVGEPAEVTTTVLVRRDHHGANFSCRTELDLRPQGLELFENTSAPYQLQTFVLPATPPQLVSPRVLEVDTQGTVVCSLDGLFPVSEAQVHLALGDQRLNPTVTYGNDSFSAKASVSVTAEDEGTQRLTCAVILGNQSQETLQTVTIYSFPAPNVILTKPEVSEGTEVTVKCEAHPRAKVTLNGVPAQPLGPRAQLLLKATPEDNGRSFSCSATLEVAGQLIHKNQTRELRVLYGPRLDERDCPGNWTWPENSQQTPMCQAWGNPLPELKCLKDGTFPLPIGESVTVTRDLEGTYLCRARSTQGEVTRKVTVNVLSPRYEIVIITVVAAAVIMGTAGLSTYLYNRQRKIKKYRLQQAQKGTPMKPNTQATPP
B2: IL-7: cytokine incorporated into DNA vaccines (protein, UniProt P13232 26-177, looked up)
Interleukin-7: DCDIEGKDGKQYESVLMVSIDQLLDSMKEIGSNCLNNEFNFFKRHICDANKEGMFLFRAARKLRQFLKMNSTGDFDLHLLKVSEGTTILLNCTGQVKGRKPAALGEAQPTKSLEENKSLKEQKKLNDLCFLKRLLQEIKTCWNKILMGTKEH
B3: LFA-3: costimulatory molecule incorporated into DNA vaccines (protein, UniProt P19256 29-250, looked up)
Lymphocyte …: FSQQIYGVVYGNVTFHVPSNVPLKEVLWKKQKDKVAELENSEFRAFSSFKNRVYLDTVSGSLTIYNLTSSDEDEYEMESPNITDTMKFFLYVLESLPSPTLTCALTNGSIEVQCMIPEHYNSHRGLIMYSWDCPMEQCKRNSTSIYFKMENDLPQKIQCTLSNPLFNTTSSIILTTCIPSSGHSRHRYALIPIPLAVITTCIVLYMNGILKCDRKPDRTNSN
B4: CD80: costimulatory molecule incorporated into DNA vaccines (protein, UniProt P33681 35-288, looked up)
T-lymphocyte activation …: VIHVTKEVKEVATLSCGHNVSVEELAQTRIYWQKEKKMVLTMMSGDMNIWPEYKNRTIFDITNNLSIVILALRPSDEGTYECVVLKYEKDAFKREHLAEVTLSVKADFPTPSISDFEIPTSNIRRIICSTSGGFPEPHLSWLENGEELNAINTTVSQDPETELYAVSSKLDFNMTTNHSFMCLIKYGHLRVNQTFNWNTTKQEHFPDNLLPSWAITLISVNGIFVICCLTYCFAPRCRERRRNERLRRESVRPV
B5: CD86: costimulatory molecule incorporated into DNA vaccines (protein, UniProt P42081 24-329, looked up)
T-lymphocyte activation …: APLKIQAYFNETADLPCQFANSQNQSLSELVVFWQDQENLVLNEVYLGKEKFDSVHSKYMGRTSFDSDSWTLRLHNLQIKDKGLYQCIIHHKKPTGMIRIHQMNSELSVLANFSQPEIVPISNITENVYINLTCSSIHGYPEPKKMSVLLRTKNSTIEYDGVMQKSQDNVTELYDVSISLSVSFPDVTSNMTIFCILETDKTRLLSSPFSIELEDPQPPPDHIPWITAVLPTVIICVMVFCLILWKWKKKKRPRNSYKCGTNTMEREESEQTKKREKIHIPERSDEAQRVFKSSKTSSCDKSDTCF
B6: CD40L: costimulatory molecule incorporated into DNA vaccines (protein, UniProt P29965 113-261, looked up)
CD40 ligand, soluble form: MQKGDQNPQIAAHVISEASSKTTSVLQWAEKGYYTMSNNLVTLENGKQLTVKRQGLYYIYAQVTFCSNREASSQAPFIASLCLKSPGRFERILLRAANTHSSAKPCGQQSIHLGGVFELQPGASVFVNVTDPSQVSHGTGFTSFGLLKL

Test system: not given
Assay: not given
Conditions: molecule incorporated into DNA vaccine; cited from earlier work
In the case of “CTLA4: costimulatory molecule incorporated into DNA vaccines”, the Cellular response is listed as “↑proliferation”. For “GM-CSF: cytokine incorporated into DNA vaccines”, the CTL is listed as “↑CTL”. For “IFNγ: cytokine incorporated into DNA vaccines”, the CTL is listed as “↑CTL”. In the case of “IL-5: cytokine incorporated into DNA vaccines”, the Antibody is listed as “↑IgG”. In the case of “IL-15: cytokine incorporated into DNA vaccines”, the Antibody is listed as “IgG?”, the CTL is listed as “↑CTL” and the Cellular response is listed as “±↑proliferation”. For “IL-18: cytokine (gene) incorporated into DNA vaccines”, the Antibody is listed as “↑IgG”, the CTL is listed as “↑CTL” and the Cellular response is listed as “↑proliferation”. For TGF-β, the Antibody is given as “↑IgG1”. In the case of B1, the CTL is given as “↑CTL”. In the case of B2, the Cellular response is given as “↑IFNγ”. For B3, the CTL is given as “↑CTL”. For B4, the CTL is listed as “↑CTL”. For B5, the CTL is listed as “↑CTL”. For B6, the CTL is given as “↑CTL” and the Cellular response is given as “↑IFNγ”.

Test system: NF-κB
Assay: Preliminary work: NF-κB induction and APC/DC function
Type: cell-based
Conditions: not given
In the case of MEKK1: kinase named as NF-κB inducer, the “induction of NF-κB and enhancement of APC/DC function” value is reported as “can induce NF-κB and enhance APC such as DC function”.

Test system: mice
Assay: not given
Conditions: gene incorporated into allergen DNA vector; cited from earlier work
For “IL-18: cytokine (gene) incorporated into DNA vaccines”, the airway hyperresponsiveness is given as “successfully reverse airway hyperresponsiveness”.

Test system: CD14+ peripheral blood monocytes cultured to DC
Assay: Maturation of monocyte-derived dendritic cells to CD83+ cells
Type: cell-based
Conditions: 15 ng/ml, within 1 day
Experimental: CD14^+ peripheral blood monocytes are adhered to tissue culture flasks and cultured in the presence of 1% AB serum, GM-CSF (400 ng/ml) and IL-4 (400 IU/ml) for 7 days. This yields cells with the morphology of DC and a mean of 49% with the CD1a^+ marker which is indicative of the immature form of the DC capable of taking up and presenting antigen. These cells are then matured to CD83^+ cells by the addition of TNFα (15 ng/ml), which enables the DC to present antigen to cytotoxic T-cells. 7% of the cells become CD83^+ within 1 day, but 3 days at least are required for maximum effect. It is possible that monocyte conditioned medium could replace the 1% AB serum but this is probably not desirable.
In the case of TNFα, the “cells becoming CD83+” value is reported as 7%.
